Test results reported in patent US4870071A, “Prophylactic and therapeutic agnet for hepatic disorder” (Senju Pharmaceutical Co., Ltd., priority 1986, dated 1989).
Entries after “also recorded” stand apart in the source; their conditions may differ. Blank lines part the entries; values can stand above or below the molecule they belong to.

Tests used:
mice = test: Acute toxicity in mice, intravenous injection (LD50)
From the text: Acute toxicity of the compounds according
to the invention in terms of LD50
Referring to the above table, the injection No. 1 was adjusted to pH 7.0-7.2 by adding sodium carbonate after dissolution of the sample.

[1] = Transfer to plasma and plasma level duration after oral administration; type: in vivo, rabbits; details: for Transfer to bloodstream on oral administration: rabbit, in vivo
Experimental: The sera separated from the blood samples were deproteinized with trichloroacetic acid and, then, free cysteine in the sera as well as cysteine resulting from hydrolysis following heating was determined by fluorescence labeling and high performance liquid chromatography (HPLC).

[2] = system: CCl4-induced acute hepatic disorder; test: Effect on CCl4-induced acute hepatic disorder, (A)-1 (time of pre-administration); type: in vivo, Wistar-strain male rats
Experimental: Wistar-strain male rats were used after fasting.
The hepatic disorder inducer CCl4 was intraperitoneally administered to each group in a dose of 0.08 ml/kg (diluted with olive oil so as to give a dose volume of 5 ml/kg) and, after about 18 hours, the blood was sampled for the assay of s-GOT and s-GPT.

[3] = system: CCl4-induced acute hepatic disorder; test: Effect on CCl4-induced acute hepatic disorder, (A)-2 (dose); type: in vivo, Male Wistar rats; details: for s-GOT / s-GPT: 10 hours before CCl4
Experimental: Ten hours later, CCl4 was intraperitoneally administered in a dose of 0.08 ml/kg. About 18 hours thereafter, the blood was sampled for the assay of s-GOT and s-GPT.

[4] = system: CCl4-induced chronic hepatic disorder; test: Effect on CCl4-induced chronic hepatic disorder; type: in vivo, Male SD rats; details: for Pathological examination of the liver: H.E. staining, compared with control group
Experimental: Male SD rats were used in two groups, namely the control group and the CGCa group.
CCl4 was dissolved in olive oil in a concentration of 10% (w/v) and the solution was intraperitoneally administered in a dose of 5 ml/kg twice a week (Tuesday and Friday) for 10 weeks. Three days after the last CCl4 administration, blood samples were collected in each group for the assay of s-GOT, s-GPT, etc. Assay of liver hydroxyproline (HyP) and pathological examination of the liver following H.E. staining were also performed.

[5] = system: acetaminophen-induced hepatic disorder; test: Effect on acetaminophen-induced hepatic disorder; type: in vivo, Male SD rats; details: 500 mg/kg oral, 1 hour before acetaminophen, 24 hours
Experimental: In this experiment, cysteineglucuronolactone and cysteineglucuronic acid salts (CG groups) were tested for their effects on acetaminophen-induced hepatic disorder in terms of their ability to suppress elevations in serum GOT, GPT, LDH and ALP. […] In the control and normal groups, 10 ml/kg of 0.5% CMC was orally administered and, in the CG groups, 500 mg/10 ml/kg of the respective compound was orally administered. An hour later, 400 mg/15 ml/kg of acetaminophen was intraperitoneally administered to the control and CG groups while 15 ml/kg of physiological saline was intraperitoneally administered to the normal group.

[6] = system: galactosamine-induced hepatopathy; test: Effect on galactosamine-induced hepatopathy; type: in vivo, Male Wistar rats
Experimental: Galactosamine-induced hepatopathy is caused by inhibition of glycoprotein and protein metabolisms and has been used as an experimental model since it pathologically resembles viral hepatitis.
(§1) Male Wistar rats were used after fasting.
Fifteen (15) hours later, a second administration was performed in the same dose. […] Twenty-four (24) hours thereafter, blood samples were collected for the assay of s-GOT and s-GPT.

[7] = system: alcohol-induced hepatopathy; test: Effect on alcohol-induced hepatopathy (liver TG); type: in vivo, Male Wistar rats
Experimental: as §1
After 13 hours, 20% alcohol was orally administered at 5 g/kg. After 8 hours, the liver was removed and TG was determined by the acetylacetone method.

[8] = Solubility of the calcium salt; type: physicochemical
[9] = Acute oral toxicity test in mice (LD50); details: mouse, in vivo
[10] = system: carbon tetrachloride-induced hepatic disorder; test: Further experiments with CGL and CGNa: suppression of s-GOT and s-GPT after CCl4; type: in vivo, rats; details: 2.0 g/kg oral 1 hour earlier than CCl4 0.08 ml/kg i.p.; versus control group
Experimental: In further experiments in which cysteineglucuronolactone (CGL) and sodium cysteineglucuronate (CGNa) were respectively administered orally in a dose of 2.0 g/kg 1 hour earlier than intraperitoneal administration of 0.08 ml/kg of CCl4, the percent suppressions of s-GOT and s-GPT obtained as compared with the control group were as shown below.

hepatic disorder models = test: Hepatic disorder models, overall statement; type: in vivo; details: oral
[11] = CGCa I group, 2.0 g/kg oral 12 hours before CCl4
[12] = CGCa II group, 2.0 g/kg oral 10 hours before CCl4
[13] = CGCa III group, 2.0 g/kg oral 8 hours before CCl4
[14] = CGCa IV group, 2.0 g/kg oral 6 hours before CCl4
[15] = CGCa V group, 2.0 g/kg oral 4 hours before CCl4
[16] = 5% CGCa in diet, CCl4 twice a week for 10 weeks
[17] = 2.0 g/kg oral twice, galactosamine hydrochloride 400 mg/kg i.p., 24 hours

Compound: O=C(O)C1CSC(C(O)C(O)C(O)C(O)C(=O)O)N1 (stereo not shown) [CGCa, Calcium cysteineglucuronate]
Acute toxicity (in words) (mice): somewhat increased toxicity
Lapse of time until free cysteine content in plasma began to increase ([1]; rabbits, oral 500 mg/kg): 2 h
Free cysteine content in plasma after 24 hours ([1]; rabbits, oral 500 mg/kg, 24 hours): at a normal value
Duration of increased blood cysteine levels compared with equimolar cysteine ([1]; rabbits, oral, versus equimolar amount of cysteine): increased blood cysteine levels can be maintained for a prolonged period
CCl4-induced increase of s-GPT (in words) ([2]; 10 or 12 hours earlier administration, p<0.05): significantly suppressed
s-GOT [2, 11]: 1134.9 ± 361.57 Karmen units
s-GPT [2, 11]: 310.5 ± 68.08 Karmen units
s-GOT [2, 12]: 921.6 ± 198.34 Karmen units
s-GPT [2, 12]: 308.5 ± 42.30 Karmen units
s-GOT [2, 13]: 929.0 ± 201.14 Karmen units
s-GPT [2, 13]: 328.2 ± 105.72 Karmen units
s-GOT [2, 14]: 1493.3 ± 480.60 Karmen units
s-GPT [2, 14]: 502.4 ± 210.66 Karmen units
s-GOT [2, 15]: 1453.0 ± 515.58 Karmen units
s-GPT [2, 15]: 516.3 ± 166.50 Karmen units
CCl4-induced increase of s-GOT (in words) ([2]; administered 8 to 10 hours earlier than CCl4, p<0.05): significantly suppressed (p<0.05)
increase in s-GOT ([3]; 1.43 g/kg): tendency toward suppression
increase of s-GPT (in words) ([3]; 1.43 g/kg, p<0.05): significantly suppressed
increase in s-GOT ([3]; 2.0 g/kg, p<0.05): significantly suppressed (p<0.05)
increase in s-GPT (in words) ([3]; 2.0 g/kg, p<0.05): significantly suppressed (p<0.05)
s-GOT ([3]; CGCa I group, 1.02 g/kg oral): 1755.6 ± 784.49 Karmen units
s-GPT ([3]; CGCa I group, 1.02 g/kg oral): 427.2 ± 131.72 Karmen units
s-GOT ([3]; CGCa II group, 1.43 g/kg oral): 1192.0 ± 264.07 Karmen units
s-GPT ([3]; CGCa II group, 1.43 g/kg oral): 309.5 ± 86.25 Karmen units
s-GOT ([3]; CGCa III group, 2.0 g/kg oral): 1106.2 ± 224.53 Karmen units
s-GPT ([3]; CGCa III group, 2.0 g/kg oral): 299.9 ± 79.85 Karmen units
elevation of LDH (in words) ([4]; 0.05<p<0.10): tended to suppress
ALP [4, 16]: 59.5 ± 23.83 King-Armstrong units
Albumin [4, 16]: 3.4 ± 0.28 g/dL
Cholinesterase [4, 16]: 0.014 ± 5.16 × 10^-3 ΔpH
LDH [4, 16]: 491.7 ± 312.24 Wroblewski units
Liver HyP [4, 16]: 371.6 ± 93.05 µg/g
Serum iron [4, 16]: 215.0 ± 39.01 µg/dL
Total bilirubin [4, 16]: 0.35 ± 0.108 mg/dL
s-GOT [4, 16]: 358.9 ± 157.13 Karmen units
s-GPT [4, 16]: 130.3 ± 53.56 Karmen units
γ-GTP [4, 16]: 3.0 ± 1.50 mU/ml
Pathological examination of the liver [4]: although vacuolar degeneration was found, the original lobular structure of the liver was preserved without evidence of hepatocirrhosis, such as formation of pseudolobules; also recorded: Necrosis was scattered and cellular infiltration was slight as compared with the control group; also recorded: effective against the damage and fibrosis of hepatocytes
Pathological examination of the liver ([4]; listed as CGC2): suppression of the fibrosis
elevation of hydroxyproline (HyP) (in words) ([4]; liver, p<0.05): significantly suppressed
elevation of s-GOT (in words) ([4]; p<0.05): significantly suppressed
elevation of s-GPT (in words) ([4]; p<0.05): significantly suppressed
ALP [5]: 11.4 ± 1.52 BL (BesseyLowry) units
LDH [5]: 705.1 ± 283.3 Wroblewski units
s-GOT [5]: 284.2 ± 136.3 Karmen units
s-GPT [5]: 121.7 ± 33.7 Karmen units
s-GOT [6, 17]: 1643.1 ± 480.43 Karmen units
s-GPT [6, 17]: 702.3 ± 223.08 Karmen units
elevation of s-GOT (in words) ([6]; oral, p<0.05): inhibited the elevations significantly (p<0.05)
elevation of s-GPT (in words) ([6]; oral, p<0.05): inhibited the elevations significantly (p<0.05)
Liver TG ([7]; 2.0 g/kg oral 13 hours before 20% alcohol 5 g/kg, 8 hours after alcohol): 4.4 ± 1.29 mg/g liver
increase of liver TG level due to alcohol (in words) ([7]; oral, p<0.05): significantly suppressed this increase (p<0.05)
Solubility (in words) [8]: low solubility
LD50 [9]: 7500 mg/kg

Transfer to bloodstream on oral administration [1]: translocated into the bloodstream
Compound: O=C(O)C1CSC(C(O)C2OC(=O)C(O)C2O)N1 (stereo not shown) [CGL, Cysteineglucuronolactone]
Suppression of s-GOT [10]: 35.0%
Suppression of s-GPT [10]: 34.8%
ALP [5]: 10.7 ± 1.04 BL (BesseyLowry) units
LDH [5]: 540.3 ± 238.1 Wroblewski units
s-GOT [5]: 185.0 ± 83.3 Karmen units
s-GPT [5]: 85.5 ± 22.7 Karmen units
depression of GOT (in words) (hepatic disorder models): significant depressions
depression of GPT (in words) (hepatic disorder models): significant depressions

Compound: O=C(O)C1CSC(C(O)C(O)C(O)C(O)C(=O)O)N1 (stereo not shown) [CGMg, Magnesium cysteineglucuronate]
ALP [5]: 12.8 ± 1.20 BL (BesseyLowry) units
LDH [5]: 857.5 ± 296.1 Wroblewski units
s-GOT [5]: 386.3 ± 88.1 Karmen units
s-GPT [5]: 141.9 ± 27.5 Karmen units

Compound: O=C(O)C1CSC(C(O)C(O)C(O)C(O)C(=O)O)N1 (stereo not shown) [CGNa, Sodium cysteineglucuronate]
Suppression of s-GOT [10]: 37.2%
Suppression of s-GPT [10]: 39.3%
ALP [5]: 10.4 ± 1.22 BL (BesseyLowry) units
LDH [5]: 557.2 ± 240.7 Wroblewski units
s-GOT [5]: 180.1 ± 63.0 Karmen units
s-GPT [5]: 78.4 ± 13.7 Karmen units

Compound: O=C(O)C1CSC(C(O)C(O)C(O)C(O)C(=O)O)N1 (stereo not shown) [cysteineglucuronic acid, Cysteineglucuronic acid]
Transfer to bloodstream on oral administration [1]: translocated into the bloodstream
depression of GOT (in words) (hepatic disorder models): significant depressions
depression of GPT (in words) (hepatic disorder models): significant depressions
